Test [1] has as its target T1, HIV-1 RT enzyme (wild type) (Human immunodeficiency virus type 1 group M subtype B, UniProt P04585).
T1 construct: The reverse transcriptase (RT) enzyme assay has been adapted to a 96-well microtiter plate format
In words: Reverse transcriptase (RT) enzymatic assay (IC50), PicoGreen fluorescence, wild type. Type of test: biochemical. The settings on record: RT enzymatic assay, wild type; read-out: IC50 WT. How it is done:
(§1) Reverse Transcriptase (RT) Assays Enzymatic Assay (IC50)
The enzymatic assay employed is described as follows: The reverse transcriptase (RT) enzyme assay has been adapted to a 96-well microtiter plate format and uses PicoGreen™ as a fluorescent intercalator. More explicitly, the HIV-1 RT enzyme was thawed and appropriately diluted into Tris/HCl 50 mM pH 7.8 containing NaCl 60 mM, MgCl2∘6H2O 2 mM, DTT 6 mM, GSH 2 mM and 0.02% w/v Chaps to give ≈10 nM enzyme. […] The plate was pre-incubated for 15 minutes at room temperature before proceeding to the next step. […] Then the enzymatic reaction was initiated by addition of 20 μL of substrate solution. […] After addition of the substrate cocktail, the plate was covered with a plastic seal and incubated for 50 minutes at 37° C. in a dry incubator. The reaction was then quenched by addition of 5 μL of EDTA 0.5 M. The plate was shaken for 30 seconds at medium speed and incubated for 5 minutes at room temperature. Then 160 μL of PicoGreen™ 1:400 dilution from commercial stock (diluted in Tris 20 mM pH 7.5 with EDTA 1 mM) was added and the plate was shaken for 30 seconds and incubated for 10 minutes at room temperature. […] Each row contained at its extremities a blank and a control well.
(§2) Table legend: A=>100; B=100-50; C=<50; NT=not tested

In test [2] the target is T2, HIV-1 RT resistant mutant K103N/Y181C (Human immunodeficiency virus type 1 group M subtype B, UniProt P04585, K690N/Y768C).
T2 construct: The reverse transcriptase (RT) enzyme assay has been adapted to a 96-well microtiter plate format
In words: Reverse transcriptase (RT) enzymatic assay (IC50), PicoGreen fluorescence, resistant mutant. The test is classed as biochemical. On the procedure: as §1
The enzymatic assay employed is described as follows: The reverse transcriptase (RT) enzyme assay has been adapted to a 96-well microtiter plate format and uses PicoGreen™ as a fluorescent intercalator. More explicitly, the HIV-1 RT enzyme was thawed and appropriately diluted into Tris/HCl 50 mM pH 7.8 containing NaCl 60 mM, MgCl2∘6H2O 2 mM, DTT 6 mM, GSH 2 mM and 0.02% w/v Chaps to give ≈10 nM enzyme. To 10 μL of this enzyme solution was added 10 μL of inhibitor solution (40 μM to […] inhibitor in the same assay buffer as above containing 4% v/v DMSO). The plate was pre-incubated for 15 minutes at room temperature before proceeding to the next step. In this pre-incubation step, the highest and lowest inhibitor concentrations were 20 μM and 1.016 nM respectively and the concentration of DMSO was 2% v/v. Then the enzymatic reaction was initiated by addition of 20 μL of substrate solution. The final reaction mixture contained Tris/HCl 50 mM pH 7.8, NaCl 60 mM, MgCl2∘6H2O 2 mM, DTT 6 mM, GSH 2 mM, CHAPS 0.02% w/v, DMSO 1% v/v, poly rC 45 nM, dG15 4.5 nM, dGTP 3.6 μM, and ≈2.5 nM enzyme. In this incubation step, the highest and lowest inhibitor concentrations were 10 μM and 0.508 nM respectively. After addition of the substrate cocktail, the plate was covered with a plastic seal and incubated for 50 minutes at 37° C. in a dry incubator. The reaction was then quenched by addition of 5 μL of EDTA 0.5 M. The plate was shaken for 30 seconds at medium speed and incubated for 5 minutes at room temperature. Then 160 μL of PicoGreen™ 1:400 dilution from commercial stock (diluted in Tris 20 mM pH 7.5 with EDTA 1 mM) was added and the plate was shaken for 30 seconds and incubated for 10 minutes at room temperature. The plate was then analyzed using a POLARstar Galaxy fluorimeter (BMG Labtechnologies) with λex and λem of 485 nm and 520 nm respectively. […] Each row contained at its extremities a blank and a control well.
as §2

Test [3] concerns HIV-1 (wild type) in C8166 LTRluc cells. Kind of test: C8166 HIV-1 luciferase assay (EC50), wild type. The test is classed as cell-based. The following applies: Human immunodeficiency virus 1, C8166 HIV-1 luciferase assay (no *).
From the text: (§3) C8166 HIV-1 Luciferase Assay (EC50)
(§4) Plasmid: pGL3 Basic LTR/TAR #12
Plasmid is the pGL3 Basic Vector (a promoterless luciferase expression vector from Promega catalogue #E1751) with the addition of HIV-1 H×B2 LTR sequence from nucleotide −138 to +80 (Sca1-HindIII) upstream of the luciferase gene and the gene for blasticidine resistance cloned in.
(§5) C8166 cells are a human T-lymphotrophic virus type 1 immortalized but nonexpressing line of cord blood lymphocytes and are highly permissive to HIV-1 infection. The reporter cells were made by electroporating C8166 cells with pGL3 Basic LTR/TAR and then selecting positive clones with blasticidine. The clone C8166-LTRluc #A8-F5-G7 was selected by 3 consecutive rounds of limiting dilution under blasticidine selection.
(§6) Media: Complete media consisting of: RPMI 1640+10% FBS+10^−5 M
(§7) β-mercaptoethanol+10 μg/ml gentamycin. Cultures are maintained in complete media with 5 μg/ml blasticidine, however, selection is removed for the assay.
(§8) Luciferase Assay Protocol
Serial dilutions of HIV-1 inhibitors compounds are prepared in complete media from 10 mM DMSO stock solutions. Eleven serial dilutions of 2.5× are made at 8× desired final concentration in a 1 ml deep well titer plate (96 wells). The 12th well contains complete media with no inhibitor and serves as the positive control. All samples contain the same concentration of DMSO (≦0.1% DMSO). A 25 μl aliquot of inhibitor is added, to triplicate wells, of a 96 well tissue culture treated clear view black microtiter plate (Corning Costar catalogue # 3904). The last row is reserved for uninfected C8166 LTRluc cells to serve as the background blank control and the first row is media alone.
Count C8166 LTRluc cells and place in a minimal volume of complete RPMI 1640 in a tissue culture flask (ex. 30×10^6 cells in 10 ml media/25 cm^2 flask). Infect cells with HIV-1 at a moi of 0.005. Incubate cells for 1.5 hours at 37° C. on a rotating rack in a 5% CO2 incubator. Resuspend cells in complete RPMI to give a final concentration of 25,000-cells/175 μl. Add 175 μl of cell mix to wells of 96 well microtiter plate containing 25 μl 8× inhibitors. Add 25,000 uninfected C8166-LTRluc cells/well in 200 μl complete RPMI to last row for background control. Incubate cells at 37° C. in 5% CO2 incubator for 3 days.
(§9) Add 50 μl Steady Glo (luciferase substrate T1/2=5 hours Promega catalogue # E2520) to each well of the 96 well plate. Determine the relative light units (RLU) of luciferase using the BMG LUMlstar Galaxy luminometer. Plates are read from the bottom for 2 seconds per well with a gain of 240.
(§10) The level of inhibition (% inhibition) of each well containing inhibitor was calculated with the following equation: […]
The calculated % inhibition values were then used to determine EC50, slope factor (n) and maximum inhibition (Imax) by the non-linear regression routine NLIN procedure of SAS using the following equation: […]
The results are listed in Table 9 as IC50(nM) and EC50 (nM).
as §2

The test system of test [4] is HIV-1 resistant mutant K103N/Y181C in C8166 LTRluc cells. Kind of test: C8166 HIV-1 luciferase assay (EC50), resistant mutant. The settings on record: Human immunodeficiency virus 1, C8166, read-out: EC50 K103N/Y181C. The test is classed as cell-based.
From the text: as §3, §4, §5, §6, §7, §8
Eleven serial dilutions of 2.5× are made at 8× desired final concentration in a 1 ml deep well titer plate (96 wells). The 12th well contains complete media with no inhibitor and serves as the positive control. All samples contain the same concentration of DMSO (≦0.1% DMSO). A 25 μl aliquot of inhibitor is added, to triplicate wells, of a 96 well tissue culture treated clear view black microtiter plate (Corning Costar catalogue # 3904). The last row is reserved for uninfected C8166 LTRluc cells to serve as the background blank control and the first row is media alone.
Count C8166 LTRluc cells and place in a minimal volume of complete RPMI 1640 in a tissue culture flask (ex. 30×10^6 cells in 10 ml media/25 cm^2 flask). […] Incubate cells for 1.5 hours at 37° C. on a rotating rack in a 5% CO2 incubator. Resuspend cells in complete RPMI to give a final concentration of 25,000-cells/175 μl. Add 175 μl of cell mix to wells of 96 well microtiter plate containing 25 μl 8× inhibitors. Add 25,000 uninfected C8166-LTRluc cells/well in 200 μl complete RPMI to last row for background control. Incubate cells at 37° C. in 5% CO2 incubator for 3 days.
as §9, §10
The calculated % inhibition values were then used to determine EC50, slope factor (n) and maximum inhibition (Imax) by the non-linear regression routine NLIN procedure of SAS using the following equation:
as §2

Bounds are passed on as bounds.

Turning to `O=C(CSc1nnnn1-c1ccccc1)Nc1ccccc1[N+](=O)[O-]` [Entry 108], the IC50 in test [1] and in test [2] was over 0.1 µM throughout.

Consider `CCc1ccccc1-n1nnnc1SCC(=O)Nc1ccccc1[N+](=O)[O-]` [Entry 110], for which the IC50 in test [1] and in test [2] was over 0.1 µM each time.

Take `CC(C)c1ccccc1-n1nnnc1SCC(=O)Nc1ccccc1[N+](=O)[O-]` [Entry 112]: the IC50 in test [1] and in test [2] was over 0.1 µM throughout.

With `O=C(CSc1nnnn1-c1cccc(Cl)c1)Nc1ccccc1[N+](=O)[O-]` [Entry 119], the IC50 in test [1] and in test [2] was over 0.1 µM each time.

As to `O=C(CSc1nnnn1-c1ccc(Cl)cc1Cl)Nc1ccccc1[N+](=O)[O-]` [Entry 126], the half-inhibitory concentration (IC50) in test [1] and in test [2] was over 0.1 µM each time.

With `O=C(CSc1nnnn1-c1ccc(Cl)c(C(F)(F)F)c1)Nc1ccccc1[N+](=O)[O-]` [Entry 137], the IC50 in test [1] and in test [2] was over 0.1 µM throughout.

In the case of `O=C(CSc1nnnn1-c1cccc2ccccc12)Nc1ccccc1` [Entry 201], the IC50 in test [1] and in test [2] was over 0.1 µM each time.

As to `Cc1ccccc1NC(=O)CSc1nnnn1-c1cccc2ccccc12` [Entry 202], the IC50 in test [1] and in test [2] was over 0.1 µM in each case.

Consider `O=C(CSc1nnnn1-c1cccc2ccccc12)Nc1ccccc1Cl` [Entry 208, N-(2-Chlorophenyl)-2-{{1-(1-naphthalenyl)-1H-tetrazol-5-yl}thio}acetamide], for which the figures for the EC50 in test [3] and in test [4] were under 0.05 µM and over 0.1 µM, respectively.

In the case of `COc1ccc(NC(=O)CSc2nnnn2-c2cccc3ccccc23)c(Cl)c1` [Entry 237], the 50% inhibitory concentration (IC50) (as a rule, the concentration that inhibits the measured activity by half) was under 0.05 µM in test [1] and over 0.1 µM in test [2]. The molecule also gave an EC50 in test [3] of under 0.05 µM.

Regarding `Cc1ccc(C)c(NC(=O)CSc2nnnn2-c2cccc3ccccc23)c1` [Entry 240], the IC50 in test [1] and in test [2] was over 0.1 µM each time.

Regarding `OC(COc1ccccc1Cl)CSc1nnnn1-c1cccc2ccccc12` (centres unmarked) [Entry 325], the concentration for half-maximal inhibition (IC50) in test [1] and in test [2] was over 0.1 µM throughout.

For `O=C(CSc1ccccc1-c1cccc2ccccc12)Nc1ccccc1Cl` [Entry 406, 2-{{2-(1-Naphthalenyl)phenyl}thio}-N-(2-chorophenyl)acetamide], the IC50 in test [1] is under 0.05 µM; in test [2], over 0.1 µM. The same molecule came in with an EC50 in test [3] of over 0.1 µM.

As for `O=C(CSc1nc2ccccc2n1-c1cccc2ccccc12)Nc1ccccc1[N+](=O)[O-]` [Entry 411], the IC50 in test [1] and in test [2] was over 0.1 µM each time.

In the case of `O=C(CSc1nc2ccccc2n1-c1ccccc1)Nc1ccccc1[N+](=O)[O-]` [Entry 412], the IC50 in test [1] is over 0.1 µM.

As for `O=C(COc1ccccc1-c1ccccc1)Nc1ccccc1[N+](=O)[O-]` [Entry 413], the half-inhibitory concentration (IC50) in test [1] and in test [2] was over 0.1 µM in each case.

As for `Cc1ccccc1NC(=O)CSc1nccn1-c1cccc2ccccc12` [Entry 414], the IC50 in test [1] is over 0.1 µM.

On to `COc1ccccc1NC(=O)CSc1nccn1-c1cccc2ccccc12` [Entry 415], for which the IC50 in test [1] is over 0.1 µM.

For `COC(=O)c1ccc(NC(=O)CSc2ccccc2-c2ccc(C)cc2Cl)c(Cl)c1` [Entry 418], the results for the IC50 in test [1] and in test [2] were under 0.05 µM and over 0.1 µM, respectively. In addition, the EC50 in test [3] fell in the range of 0.05 to 0.1 µM.

Regarding `Cc1ccc(-c2ccccc2SCC(=O)Nc2ccc(C(=O)O)cc2Cl)c(Cl)c1` [Entry 419], the half-maximal inhibitory concentration (IC50) in test [1] was under 0.05 µM; in test [2] it was over 0.1 µM. The molecule also yielded an EC50 in test [3] of 0.05 to 0.1 µM.

Regarding `Cc1cc(C)c(-n2nnnc2SCC(=O)c2ccc3c(c2)OCO3)c(C)c1` [Entry 423], the IC50 in test [1] was over 0.1 µM.

Take `O=C(CSc1ccccc1Br)Nc1ccccc1Cl` [Entry 426]: the IC50 in test [1] is over 0.1 µM.

Turning to `Cc1ccc(NC(=O)CSc2nnnn2-c2ccc(C)cc2Cl)c(Cl)c1` [Entry 502], the IC50 in test [1] was under 0.05 µM; in test [2], over 0.1 µM. The molecule also yielded an EC50 in test [3] of under 0.05 µM.

On to `COC(=O)c1ccc(NC(=O)CSc2nnnn2-c2ccc(C)cc2Cl)c([N+](=O)[O-])c1` [Entry 506], for which the IC50 is under 0.05 µM in test [1] and over 0.1 µM in test [2].

Turning to `Cc1ccc(-n2nnnc2SCC(=O)Nc2ccccc2Cl)c(Br)c1` [Entry 701], the IC50 was under 0.05 µM in test [1] and over 0.1 µM in test [2].

(Values after US7642277B2, “Non-nucleoside reverse transcriptase inhibitors” (Boehringer Ingelheim International GmbH, priority 2002, dated 2010).)
